Results: US20160361244A1, “USE OF THE INHIBITOR OF STEROID SULFATASES STX64 FOR TREATING AGING” (U[…] DE OLAVIDE, priority 2013, published 2016)

Tested on: wild type C. elegans
Assay: Longevity curves of C. elegans in the presence of the steroid sulfatase inhibitor
Assay type: in vivo
Settings: for longevity (longevity curve) versus control population exposed to the inhibitor solvent (DMSO): 25° C., p=0.0139, n>100, FIG. 3
Procedure: In order to generate the longevity curves, the strains under study and their pertinent controls were first subjected to an egg preparation in order to prevent contaminations and synchronise them at the embryonic stage, and, subsequently, they were incubated at 16° C. In order to prevent interferences caused by physiological stresses resulting from this process, they were allowed to grow to the following generation. 5 or 6 L4 per plate were then transferred to 4 plates, and were once again incubated at 16° C. to L4, the stage selected to start the longevity curves.
On day zero, 120 L4 of each strain were transferred to new plates, 20 worms per plate, and incubated at the temperature at which the assay was subsequently performed, i.e. 25° C.
During the first week of the curves, the nematodes were transferred to new plates every 2 days, in order to prevent confusions with potential descendants. Subsequently, they were checked every 2 or 3 days, and those specimens that were lost or dead for non-physiological reasons were withdrawn from the study. The individuals were transferred to new plates every 5 days in order to maintain optimal growth conditions in the plates. The specimens were considered to be dead when they ceased to respond upon being softly touched with the platinum wire.
The longevity was studied in the presence of the steroid sulfatase inhibitor STX64 (SIGMA, S1950-5MG) diluted in DMSO at 5 μg/μl. […] The preparation and synchronisation of the nematodes until day=0 was the same as in the preceding case, the only difference being that the nematodes were transferred to fresh plates every two or three days until the curve was completed.
We used the GraphPad Prism 5 programme (Version 5.0a, for Mac OS X. 1992-2008 GraphPad Software, Inc.) in the survival curve mode to represent the longevity curves, and the Kaplan-Meier method was used to perform the statistical analysis thereof. […]

## NS(=O)(=O)Oc1ccc2c3c(c(=O)oc2c1)CCCCC3 [STX64, Irosustat]
C. elegans, FIG. 3
  effect of treatment on ageing: delayed ageing
Wild type population supplemented with 0.5 μg/ml
  longevity (longevity curve) versus control population exposed to the inhibitor solvent (DMSO): lives significantly longer
Wild type population supplemented with 1 μg/ml
  longevity (longevity curve) versus control population exposed to the inhibitor solvent (DMSO): lives significantly longer
